According to patent US10538535B2, “Antitumoral compounds” (priority 2017, dated 2020):
Read-outs that look alike come from different tables or passages of the source.

Columns and labels:
H526 tumors = assay: In vivo xenograft, human lung (SCLC) H526; conditions: iv weekly, 39-S […], C 3 mg/Kg
Protocol: (§2) Female athymic nu/nu mice (Harlan Laboratories Models, S. L. Barcelona, Spain or Envigo, Spain) were utilized for all experiments. Animal were housed in individually ventilated cages Sealsafe® Plus, Techniplast S.P.A.), up to ten per cage on a 12-hour light-dark cycle at 21-23° C. and 40-60% humidity. Mice were allowed free access to irradiated standard rodent diet (Tecklad 2914C) and sterilized water. Animals were acclimated for at least 5 days prior to tumor implantation with a tumor cell suspension.
H526 cells were grown as a suspension and maintained by addition of fresh medium, as the cell density increases, every 2 to 3 days. Every week, culture was reestablished by centrifugation of the suspension with subsequent resuspension in fresh medium at a concentration of 1×10^5 cell/mL. Each animal was subcutaneously implanted (on the right flank using 26 G needle and a 1 cc syringe) at 4-6 weeks of age with 5×10^6 H526 cells suspended in 0.05 mL of a solution consisting of 50% Matrigel® (Corning Incorporated Life Sciences) and 50% medium without serum or antibiotics.
(§3) Treatment tolerability was assessed by monitoring body weight evolution, clinical signs of systemic toxicity, as well as evidences of local damage in the injection site.
(§4) Treatments producing >20% lethality and/or 20% net body weight loss were considered toxic.

PSN1 cells = assay: cells; conditions: Homo sapiens, PSN1, 72 h
Outline: (§1)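 Human cancer lines grown in DMEM plus 10% FBS at 37° C. were plated at 5000 cells/well and left 18 hours before dosing. Test compounds (10 to 0.003 μg/mL, triplicates) acted for 72 hours, after which glutaraldehyde-fixed cells were stained with sulforhodamine B.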

HT29 cells = assay: cells; conditions: Homo sapiens, HT-29, 72 h
Outline: as §1

MDA-MB-231 cells = assay: cells; conditions: Homo sapiens, MDA-MB-231, 72 h
Outline: as §1

A549 cells = assay: cells; conditions: Homo sapiens, A549, 72 h
Outline: as §1

[1] = MTMD (Maximum Tolerated Multiple Dose) determination, iv weekly x3; format: in vivo; conditions: mice; iv/Q7dx3
Outline: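 Female CD-1 or athymic nude (nu/nu) mice received compound in experimental formulation at various concentrations, or blank formulation, i.v. at 10 mL/kg, once (MTD) or weekly for three weeks (MTMD). Clinical signs of systemic toxicity, body weight and mortality were followed up to 14 days post-dose.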

H460 tumors = conditions: iv, 3 mg/kg
Protocol: Female athymic nu/nu mice (Harlan Laboratories Models, S. L. Barcelona, Spain or Envigo, Spain) were utilized for all experiments. Animal were housed in individually ventilated cages Sealsafe® Plus, Techniplast S.P.A.), up to ten per cage on a 12-hour light-dark cycle at 21-23° C. and 40-60% humidity. […] Animals were acclimated for at least 5 days prior to tumor implantation with a tumor cell suspension.
H460 cells were maintained in vitro at 37° C. with 5% CO2 in Dulbecco's Modified Eagle's Medium (Sigma-Aldrich, Co). Culture cells were passaged every 3 to 5 days upon reaching confluence. Each animal was subcutaneously implanted (on the right flank using 26 G needle and a 1 cc syringe) at 4-6 weeks of age with 5×10^6 H460 cells suspended in 0.05 mL of a solution consisting of 50% Matrigel® (Corning Incorporated Life Sciences) and 50% medium without serum or antibiotics.
as §3, §4

H82 tumors = assay: In vivo xenograft, human lung (SCLC) H82; conditions: iv weekly, 39-S […], C 3 mg/Kg
Protocol: as §2
H82 cells were grown as a suspension and maintained by addition of fresh medium, as the cell density increases, every 2 to 3 days. Every week, culture was reestablished by centrifugation of the suspension with subsequent resuspension in fresh medium at a concentration of 1×10^5 cell/ml. Animals were subcutaneously implanted (on the right flank using 26 G needle and a 1 cc syringe) at 4-6 weeks of age with 5×10^6 H82 cells, suspended in 0.05 mL of a solution consisting of 50% Matrigel® (Corning Incorporated Life Sciences) and 50% medium without serum or antibiotics.
as §3
In xenograft studies with other cell lines: • Tumor volume was calculated using the equation (a·b^2)/2, where a: length (longest diameter) and b: width (shortest diameter) were measured in mm by using digital caliper (Fowler Sylvac, S235PAT).
as §4
Tables and figures summarize the data obtained from complete experimental groups, i.e. those groups keeping the initial number of animals, n=8-10.

COc1c(C)cc2c(c1O)[C@@H]1[C@@H]3[C@@H]4SC[C@]5(N[C@H](C)Cc6c5[nH]c5ccccc65)C(=O)OC[C@@H](c5c6c(c(C)c(OC(C)=O)c54)OCO6)N3[C@@H](O)[C@H](C2)N1C [C]
Median Tumor Volume (H526 tumors; Table 49, Day 0): 217.9 mm^3 | Median Tumor Volume (H526 tumors; Table 49, Day 2): 262.4 mm^3 | Median Tumor Volume (H526 tumors; Table 49, Day 4): 108.3 mm^3 | Median Tumor Volume (H526 tumors; Table 49, Day 7): 129.8 mm^3 | Median Tumor Volume (H526 tumors; Table 49, Day 9): 85.9 mm^3 | Median Tumor Volume (H526 tumors; Table 49, Day 11): 52.3 mm^3 | Median Tumor Volume (H526 tumors; Table 49, Day 14): 54.1 mm^3 | Median Tumor Volume (H526 tumors; Table 49, Day 16): 47.3 mm^3 | Median Tumor Volume (H526 tumors; Table 49, Day 21): 4.0 mm^3 | Median Tumor Volume (H526 tumors; Table 49, Day 28): 4.0 mm^3 | Median Tumor Volume (H526 tumors; Table 49, Day 35): 4.0 mm^3 | Median Tumor Volume (H526 tumors; Table 49, Day 42): 62.5 mm^3 | Median Tumor Volume (H526 tumors; Table 49, Day 49): 53.5 mm^3 | Median Tumor Volume (H526 tumors; Table 49, Day 56): 70.0 mm^3 | Median Tumor Volume (H526 tumors; Table 49, Day 63): 132.3 mm^3 | Median Tumor Volume (H526 tumors; Table 49, Day 70): 368.5 mm^3 | Median Tumor Volume (H526 tumors; Table 49, Day 77): 465.8 mm^3 | Median Tumor Volume (H526 tumors; Table 49, Day 84): 107.4 mm^3 | Median Tumor Volume (H526 tumors; Table 49, Day 91): 130.0 mm^3 | Median Tumor Volume (H526 tumors; Table 49, Day 98): 4.0 mm^3 | Median Tumor Volume (H526 tumors; Table 49, Day 105): 4.0 mm^3 | Median Tumor Volume (H526 tumors; Table 49, Day 112): 4.0 mm^3 | Median Tumor Volume (H526 tumors; Table 49, Day 119): 4.0 mm^3 | Median Tumor Volume (H526 tumors; Table 49, Day 126): 4.0 mm^3 | Median Tumor Volume (H526 tumors; Table 49, Day 133): 4.0 mm^3 | Median Tumor Volume (H526 tumors; Table 49, Day 140): 4.0 mm^3 | Median Tumor Volume (H526 tumors; Table 49, Day 147): 4.0 mm^3 | Median Tumor Volume (H526 tumors; Table 49, Day 165): 4.0 mm^3 | Median Tumor Volume (H526 tumors; Table 49, Day 175): 4.0 mm^3 | Median Tumor Volume (H526 tumors; Table 49, Day 191): 4.0 mm^3 | Median Tumor Volume (H526 tumors; Table 49, Day 205): 4.0 mm^3 | GI50 (PSN1 cells): 36.4 nM | CC50 (PSN1 cells; read-out: LC50): 65 nM | IC (TGI) (PSN1 cells; read-out: TGI): 44.2 nM | GI50 (HT29 cells): 20.8 nM | CC50 (HT29 cells; read-out: LC50): > 130 nM | IC (TGI) (HT29 cells; read-out: TGI): 23.4 nM | GI50 (MDA-MB-231 cells): 26 nM | CC50 (MDA-MB-231 cells; read-out: LC50): > 130 nM | IC (TGI) (MDA-MB-231 cells; read-out: TGI): 54.6 nM | GI50 (A549 cells): 27.3 nM | CC50 (A549 cells; read-out: LC50): > 130 nM | IC (TGI) (A549 cells; read-out: TGI): 66.3 nM | MTMD [1]: 3.0 mg/kg | Median Tumor Volume (H460 tumors; 0 h): 186.1 mm^3 | Median Tumor Volume (H460 tumors; 48 h): 395.4 mm^3 | Median Tumor Volume (H460 tumors; 120 h): 665.9 mm^3 | Median Tumor Volume (H460 tumors; 168 h): 929.5 mm^3 | Median Tumor Volume (H460 tumors; 336 h): 2025.0 mm^3 | Median Tumor Volume (H460 tumors; 384 h): 2025.0 mm^3 | Median Tumor Volume (H82 tumors; Table 50, Day 0): 170.5 mm^3 | Median Tumor Volume (H82 tumors; Table 50, Day 2): 265.3 mm^3 | Median Tumor Volume (H82 tumors; Table 50, Day 5): 488.7 mm^3 | Median Tumor Volume (H82 tumors; Table 50, Day 7): 760.0 mm^3 | Median Tumor Volume (H82 tumors; Table 50, Day 9): 899.5 mm^3 | Median Tumor Volume (H82 tumors; Table 50, Day 12): 1038.5 mm^3 | Median Tumor Volume (H82 tumors; Table 50, Day 14): 1213.4 mm^3 | Median Tumor Volume (H82 tumors; Table 50, Day 16): 1256.4 mm^3 | Median Tumor Volume (H82 tumors; Table 50, Day 19): 1741.5 mm^3 | Median Tumor Volume (H82 tumors; Table 50, Day 21): 1878.8 mm^3 | Median Tumor Volume (H82 tumors; Table 50, Day 23): 2057.0 mm^3
